{"source": "patent US20100028259A1", "about": "“USE OF ORGANIC CATION TRANSPORTERS FOR CANCER DIAGNOSIS AND THERAPY” (The Regents of the University of California, priority 2006, published 2010)", "key": {"MDCK-hOCT1 cells": {"test_system": "MDCK-hOCT1 cells", "experiment": "Platinum-DNA adduct formation in MDCK-hOCT1 cells", "format": "cell-based, canine", "method": "(§1) After incubation at 37° C. and 5% CO2 for 2 hours, the cells were washed with ice-cold PBS three times and harvested. The genomic DNA was isolated from the cells and the platinum content associated with DNA was determined by ICP-MS and normalized for DNA content. Data are expressed as mean±SD from a typical experiment performed in triplicate. Two independent experiments were conducted and similar results were obtained.\nAfter incubation, the cells were washed with ice-cold PBS three times and harvested. Genomic DNA was isolated from the harvested cells and the DNA-associated platinum content was determined by ICP-MS and normalized for the DNA content. Data are expressed as mean±SD of three measurements.\n(§2) The platinum content associated with genomic DNA was determined as described in Samimi et al., Clin. Cancer Res., 10:4661-4669 (2004) with some modifications. Briefly, the cells were grown in 100 mm×20 mm dishes in the culture medium without any antibiotics to over 90% confluence. For HEK 293 cells, poly-D-lysine coated dishes were used. Then, the cells were incubated in the culture medium containing the specified concentrations of the platinum-based compounds at 37° C. in 5% CO2 for 2 hours (or 25 min as specified). In some experiments, phosphate buffer (PB: 1.06 mM KH2PO4, 2.97 mM Na2HPO4, pH 7.4) containing 155 mM NaCl (PB—Cl buffer) or 103 mM Na2SO4 (PB—SO4 buffer) was used instead of the culture medium as specified. For the OCT inhibitor study, the incubation medium (buffer) also contained disopyramide or cimetidine). If PB—Cl or PB—SO4 buffer was used, the cells were washed with the same buffer once before drug incubation. After incubation, the cells were washed with ice-cold PBS, scraped, and pelleted. Genomic DNA was isolated from the cell pellets using the Wizard® Genomic DNA Purification Kit (Promega, Madison, Wis.) following the manufacturer's instructions. Briefly, the cells were lysed with Nuclei Lysis Solution. After RNA digestion and protein precipitation, the lysates were centrifuged and the resulting supernatant was aliquoted. The genomic DNA prepared from two different aliquots of the supernatant was used for platinum and DNA content determination, respectively. For the determination of platinum, the DNA samples were treated with 70% nitric acid at 65° C. and diluted in the same way as described above. The platinum content was analyzed using ICP-MS and the DNA content was measured by absorption spectroscopy."}, "HEK-hOCT3 cells": {"test_system": "HEK-hOCT3 cells", "experiment": "MTT drug sensitivity assay in HEK-hOCT3 cells", "format": "cell-based, human", "method": "(§3) Cytotoxicity of the platinum-based compounds was measured by MTT (thiazolyl blue tetrazolium bromide) assay. Cells were seeded in 100 μl of the culture medium without any antibiotics in 96-well plates at a predetermined cell density. For HEK 293 cells, poly-D-lysine coated plates were used. […] For the OCT inhibitor studies, the inhibitors (i.e., disopyramide or cimetidine) were added to the medium at a specified concentration immediately before the addition of the platinum-based compounds. After incubation for a specified time period, the drug-containing medium was replaced with fresh, drug-free medium and the incubation was continued for a total of 72 hours (start from the addition of platinum-based compounds). Then, the MTT assay was performed similarly as described in Alley et al., Cancer Res., 48:589-601 (1988). […] The maximal cell growth was the cell growth in the medium without any platinum-based compounds; C is the concentration of the platinum-based compound, and γ is the slope factor.\nBriefly, the cells were seeded in 96-well plates at a density of 5,000 cells/well for the transfected MDCK cells or 12,000 cells/well for the transfected HEK 293 cells. The platinum-based drugs were added on the following day. After the specified time periods of drug exposure, the drug-containing medium was replaced with fresh, drug-free medium, and the incubation was continued for a total of 72 hours (start from the time when the drug was added). After incubation, the cell growth was determined by an MTT assay. Data are expressed as mean±SD from 3 to 6 independent experiments with each performed in quadruplicate. The resistance factor (RF) was defined as the ratio of the mean IC50 value in the MOCK cells to that in the OCT-transfected cells."}, "HCT116": {"test_system": "HCT116", "experiment": "MTT drug sensitivity, colon cancer cell line HCT116", "format": "cell-based, human", "method": "as §3\nThe cell seeding density was 6,000-, 8,000-, 6,000-, 15,000-12,000- and 4,000 cells/well for HCT116, HT29, RKO, SW620, LS180, and DLD cells, respectively. When cimetidine (1.5 mM) was used, it was added to the wells immediately before the addition of the platinum-based drugs. The resistance factor (RF) was defined as the ratio of the mean IC50 value in the presence to that in the absence of cimetidine. Data are expressed as mean±SD from six measurements, and each measurement was performed in quadruplicate."}, "HEK-hOCT2 cells": {"test_system": "HEK-hOCT2 cells", "experiment": "Platinum-DNA adduct formation in HEK-hOCT2 cells", "format": "cell-based, human", "conditions": "2-hr exposure", "method": "as §1, §2"}, "[1]": {"conditions": "2-hr exposure, disopyramide 150 μM"}}, "note": "Like-named read-outs stand apart in the source and are kept apart here.", "data": [{"compound": "O=C1[O][Pt]2([NH][C@@H]3CCCC[C@H]3[NH]2)[O]C1=O", "note": "[oxaliplatin]", "values": [{"measurement": "rb in MDCK-hOCT1", "setting": "MDCK-hOCT1 cells; 20 μM, PB—Cl, 25 min", "value": "3.08±0.41×10^−6"}, {"measurement": "rb in MDCK-hOCT1", "setting": "MDCK-hOCT1 cells; 20 μM, PB—SO4, 25 min", "value": "1.31±0.29×10^−6"}, {"measurement": "Pt-DNA adduct level in MDCK-hOCT1", "setting": "MDCK-hOCT1 cells; 20 μM, chloride free buffer PB—SO4, 25 min", "value": "0.00398±0.00089", "unit": "pmol/μg DNA"}, {"measurement": "DNA-associated platinum level in MDCK-hOCT1", "setting": "MDCK-hOCT1 cells; 20 μM, chloride-containing buffer PB—Cl, 25 min", "value": "0.00933±0.00124", "unit": "pmol/μg DNA"}, {"measurement": "platinum-DNA adduct level in MDCK-hOCT1, disopyramide-treated", "setting": "MDCK-hOCT1 cells; [1]", "value": "0.0217±0.0019", "unit": "pmol/μg DNA"}, {"measurement": "rb in MDCK-hOCT1, disopyramide-treated", "setting": "MDCK-hOCT1 cells; [1]", "value": "7.16±0.63×10^−6"}, {"measurement": "platinum-DNA adduct level in MDCK-hOCT1", "setting": "MDCK-hOCT1 cells; 2-hr exposure, oxaliplatin 10 μM, culture medium", "value": "0.0457±0.0011", "unit": "pmol/μg DNA"}, {"measurement": "IC50", "setting": "HEK-hOCT3 cells; drug exposure 7 hour", "value": "2220 ± 410", "unit": "nM"}, {"measurement": "IC50", "setting": "HEK-hOCT3 cells; drug exposure 24 hour", "value": "620 ± 190", "unit": "nM"}, {"measurement": "IC50", "setting": "HEK-hOCT3 cells; drug exposure 72 hour", "value": "690 ± 190", "unit": "nM"}, {"measurement": "IC50", "setting": "HCT116; HCT116, absence of cimetidine, read-out: IC50 Control", "value": "2.37 ± 1.44", "unit": "µM"}, {"measurement": "IC50", "setting": "HCT116; HCT116, cimetidine 1.5 mM, read-out: IC50 Cimetidine-treated", "value": "18.8 ± 6.19", "unit": "µM"}, {"measurement": "platinum-DNA adduct level in HEK-hOCT2, cimetidine", "setting": "HEK-hOCT2 cells; cimetidine 1.5 mM", "value": "0.00216±0.00031", "unit": "pmol/μg DNA"}, {"measurement": "rb in HEK-hOCT2, cimetidine", "setting": "HEK-hOCT2 cells; cimetidine 1.5 mM", "value": "7.13±1.02×10^−7"}, {"measurement": "platinum-DNA adduct level in HEK-hOCT2", "setting": "HEK-hOCT2 cells; oxaliplatin 0.6 μM", "value": "0.0284±0.0020", "unit": "pmol/μg DNA"}, {"measurement": "rb in HEK-hOCT2", "setting": "HEK-hOCT2 cells; oxaliplatin 0.6 μM", "value": "9.37±0.66×10^−6"}]}]}
